“And” between values parts separate entries of the source, which are not always exact repeats. Identical values can stand only once.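 In this assay, cells in 96-well plates receive the compound at five concentrations for 48 hours. Endpoints are linearly interpolated between the surrounding concentrations. GI50 = concentration required for 50% inhibition of growth. The concentration for full growth arrest is given as TGI.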
Key:
Assay in all cases: NCI tumour cell line growth inhibition, 48 h
HOP-18 NSCLC = system: HOP-18 NSCLC
XF 498 CNS = system: XF 498 CNS
BT-549 breast = system: BT-549 breast
HS 578T breast = system: HS 578T breast
MCF7 breast = system: MCF7 breast
MDA-MB-435 = system: MDA-MB-435
MDA-N = system: MDA-N
P388 leukemia = system: P388 leukemia
P388/ADR leukemia = system: P388/ADR leukemia
RXF-631 renal = system: RXF-631 renal
NCI/ADR-RES ovarian = system: NCI/ADR-RES ovarian

| Structure (SMILES) | TGI (HOP-18 NSCLC) | TGI (XF 498 CNS) | TGI (BT-549 breast) | TGI (HS 578T breast) | TGI (MCF7 breast) | TGI (MDA-MB-435) | TGI (NCI/ADR-RES ovarian) | other results |
| --- | --- | --- | --- | --- | --- | --- | --- | --- |
| O=c1[nH]cnc2c1nnn2C1C=C(CO)C(O)C1O (configuration not stated) | > 100 µM | > 100 µM |  |  |  |  |  |  |
| CN(C)CC1CCCC(CN(C)C)C1=O (configuration not stated) | 3.32 µM | 3.69 µM | 10.7 µM and 38 µM | > 100 µM and 80.3 µM | 6 µM and > 41.7 µM | 39.1 µM and 23.8 µM |  | GI50 (BT-549 breast): 3.24 µM and 19.4 µM; GI50 (HS 578T breast): 3.26 µM and 26.5 µM; GI50 (MCF7 breast): 0.575 µM and 3.45 µM; GI50 (MDA-MB-435): 19.6 µM and 8.54 µM; TGI (MDA-N): 25.6 µM and 28.4 µM; TGI (P388 leukemia): 2.13 µM; TGI (P388/ADR leukemia): 0.226 µM |
| COc1ccc(C(=O)Nc2ccccc2C#N)cc1 | > 100 µM | > 100 µM |  |  |  |  |  |  |
| O=C1/C(=C/c2ccccc2Cl)COc2ccccc21 | 24 µM | 29.2 µM |  |  |  |  |  | TGI (RXF-631 renal): 36.3 µM |
| O=C(NCCS(=O)(=O)N1C(=O)C2CCCN2C(=O)[C@@H]1Cc1ccccc1)OCc1ccccc1 (some centres not stated) | > 100 µM | 11 µM |  |  |  |  |  | TGI (RXF-631 renal): > 100 µM |
| O=[N+]([O-])c1ccc([I+]c2ccccc2)cc1 |  |  | 8.12 µM and 3.09 µM | 13.5 µM and 5.85 µM | 10.3 µM and 8.25 µM | 23.3 µM and 4.33 µM | > 29.1 µM and 6.92 µM | GI50 (BT-549 breast): 1.63 µM; GI50 (HS 578T breast): 2 µM; GI50 (MCF7 breast): 2.24 µM; GI50 (MDA-MB-435): 1.85 µM; TGI (MDA-N): 20.9 µM; GI50 (NCI/ADR-RES ovarian): 2.25 µM |
| O=C(O)Cc1ccccc1 |  |  | > 2000 µM | > 1000 µM and 1780 µM | > 2000 µM | > 2000 µM | > 2000 µM | GI50 (HS 578T breast): > 1000 µM; GI50 (MDA-N): > 1000 µM; TGI (MDA-N): > 2000 µM; GI50 (NCI/ADR-RES ovarian): > 1000 µM |
| COC(=O)[C@@]12C3=NO[C@]1(C(=O)OC)C(O[Si](C)(C)C(C)(C)C)C1OC(C)(C)OC1[C@@H]2[C@@H](OCc1ccccc1)CC3 (some centres not stated) | > 100 µM |  |  |  |  |  |  |  |
| COc1cc(-c2[nH]ncc2CCCC(=O)Nc2ccccc2[N+](=O)[O-])ccc1O | > 100 µM | > 100 µM |  |  |  |  |  |  |
| CCOC(=O)C1=C(O)CSC1=Nc1ccc(N=C2SCC(O)=C2C(=O)OCC)cc1 |  | 42 µM |  |  |  |  |  |  |
| CC/C(=C(/CC)c1ccc(OP(=O)([O-])[O-])cc1)c1ccc(OP(=O)([O-])[O-])cc1.N.N.N.N.[Pt+4].[Pt+4] | > 100 µM |  |  |  |  |  |  | GI50 (HOP-18 NSCLC): 59 µM |
| COC(=O)C1(C)CCc2c(ccc3ccccc23)C1=O (configuration not stated) |  |  | 64 µM | > 100 µM | 81.2 µM | > 100 µM | > 100 µM | TGI (MDA-N): 76.5 µM |
| COc1ccc(C(NCCNC(c2ccc(OC)c(OC)c2)c2cc3c(cc2O)OCO3)c2cc3c(cc2O)OCO3)cc1OC (configuration not stated) |  |  | 6.22 µM | > 100 µM | 3.36 µM | 4.11 µM | 8.27 µM | TGI (MDA-N): 3.58 µM |
| CCOC(=O)C12CN(C34CC5CC(CC(C5)C3)C4)CC(C(=O)OCC)(C1=O)C(c1ccccc1)OC2c1ccccc1 (configuration not stated) |  | > 100 µM |  |  |  |  |  |  |
| COc1ccc(Nc2nc3c(N)cc(C(F)(F)F)cc3nc2-c2ccccc2)cc1 | > 100 µM | > 100 µM |  |  |  |  |  | TGI (RXF-631 renal): > 100 µM |
| Nc1cc2c3c(cccc3c1)C(=O)N(CCN1CCN(CCN3C(=O)c4cccc5cc(N)cc(c45)C3=O)CC1)C2=O | > 100 µM | > 100 µM |  |  |  |  |  | TGI (RXF-631 renal): > 100 µM |
| CCCCCNC(=O)C1C(=O)N(CCCCC)C(=O)/C1=N\N (configuration not stated) | > 100 µM |  |  |  |  |  |  |  |
| CC1(C)OCC(C2OC(On3nnc4ccc(Cl)cc43)C3OC(C)(C)OC23)O1 (configuration not stated) |  |  | > 100 µM | > 100 µM | > 100 µM | > 100 µM | > 100 µM | TGI (MDA-N): > 100 µM |
| COC12c3ccccc3-c3ccccc3C1[C@@H](C(=O)O)[C@H]2C(=O)O (some centres not stated) |  |  |  | > 10 µM | > 10 µM | > 10 µM | > 10 µM | TGI (MDA-N): > 10 µM |
| COc1cc2c(cc1OCCCN1CCN(CCCOc3cc4c(cc3OC)C(=O)C3CCC[C@H]3C=N4)CC1)N=C[C@@H]1CCCC1C2=O (some centres not stated) |  |  | > 100 µM | 15.1 µM | > 100 µM | 30.3 µM | > 100 µM | GI50 (BT-549 breast): 1.7 µM; GI50 (HS 578T breast): 1.42 µM; GI50 (MCF7 breast): 1.44 µM; GI50 (MDA-MB-435): 5.89 µM; GI50 (NCI/ADR-RES ovarian): > 100 µM |
| O=S(=O)(Nc1ccc2ccc3cccc4ccc1c2c34)c1ccccc1 |  |  | > 100 µM | > 100 µM | > 100 µM | 24.4 µM | > 100 µM |  |
| O=C1c2cccnc2-c2nc(-c3ccccc3)cc3c2c1nc1ccccc13 |  |  | 21.3 µM | 42.9 µM | 4.11 µM | 2.96 µM | 32.7 µM | GI50 (BT-549 breast): 5.15 µM; GI50 (HS 578T breast): 16.6 µM; GI50 (MCF7 breast): 1.09 µM; GI50 (MDA-MB-435): 1.53 µM; GI50 (MDA-N): 1.74 µM; TGI (MDA-N): 3.46 µM; GI50 (NCI/ADR-RES ovarian): 11.9 µM |
| Nc1ccc(C(=O)O)c2[nH]c3ccccc3c(=O)c12 | > 100 µM |  |  |  |  |  |  |  |
| Nc1ncn([C@@H]2C=C(CO)C(O)C2O)c(=O)n1 (some centres not stated) | > 100 µM | > 100 µM |  |  |  |  |  | TGI (RXF-631 renal): > 100 µM |
| CCOc1ccc(NC(=O)/C(=C/c2ccccc2)C(C)=O)cc1 | 25.5 µM | 28.9 µM |  |  |  |  |  |  |
| Cc1cc2c(C)nn(Cc3ccc(Cl)cc3Cl)c2c(C#N)c1C | > 100 µM | > 100 µM |  |  |  |  |  |  |
| COc1ccc(C(=O)Nc2ccccc2)cc1[N+](=O)[O-] |  | > 100 µM |  |  |  |  |  | TGI (RXF-631 renal): > 100 µM |
| CC[C@]12C=CCN3CC[C@]4(C(=C(C(=O)OC)C1)Nc1ccccc14)[C@@H]32 |  |  | 21.6 µM | 17.2 µM | 13.1 µM | 5.63 µM | 58.1 µM | GI50 (BT-549 breast): 8.71 µM; GI50 (HS 578T breast): 2.99 µM; GI50 (MCF7 breast): 3.33 µM; GI50 (MDA-MB-435): 2.06 µM; GI50 (NCI/ADR-RES ovarian): 6.39 µM |
| c1ccc(COc2ccc(Nc3ncnc4ccc(-c5ccco5)cc34)cc2)cc1 |  |  | > 25 µM | > 23.5 µM | > 13.5 µM | 22.3 µM | > 25 µM | GI50 (BT-549 breast): 6.87 µM; GI50 (HS 578T breast): 7.71 µM; GI50 (MCF7 breast): 0.572 µM; GI50 (MDA-MB-435): 6.83 µM; GI50 (NCI/ADR-RES ovarian): 7.97 µM |
| COc1ccc2c(c1)C(=O)/C(=C/c1ccc(OCC(=O)c3ccc(Cl)cc3)cc1)O2 |  |  | 59.1 µM | 84.6 µM | > 100 µM | 91.8 µM | 41.8 µM | GI50 (BT-549 breast): 18.4 µM; GI50 (HS 578T breast): 22.1 µM; GI50 (MCF7 breast): 28.3 µM; GI50 (MDA-MB-435): 22.9 µM; GI50 (NCI/ADR-RES ovarian): 16.3 µM |
